Measured values reported in US4522803A (priority 1983, dated 1985).
Read-outs that look alike come from different tables or passages of the source.

How the values were obtained:
B. canis [1] = test system: B. canis; set-up: species or system B. canis ATCC 23365; conditions: in vivo
B. canis [2] = format: cell-based; conditions: suspension culture
B. canis [3] = format: cell-based
B. abortus [4] = format: cell-based; conditions: mean ± SD of 12 replicates; streptomycin 1 mg/ml, 24 hours
B. canis [5] = test system: B. canis; set-up: species or system B. canis ATCC 23365; conditions: in vivo; remark: listed apart in the source
B. canis [6] = test system: B. canis; set-up: species or system B. canis ATCC 23365; conditions: in vivo, ip, 10 mg/kg
B. canis [7] = test system: B. canis; set-up: species or system B. canis ATCC 23365; conditions: in vivo, ip, 10 mg/kg; remark: listed apart in the source
B. abortus [8] = test system: B. abortus; set-up: species or system B. abortus ATCC 23451; conditions: in vivo, ip, 10 mg/kg
M. bovis = format: in vivo
B. canis antigen = conditions: in vivo
[9] = Retention and sustained release of gentamycin after topical application in eyes of mice

CN[C@@H]1[C@H](O[C@H]2[C@H](O[C@H]3[C@H](O)[C@@H](O)[C@H](NC(=N)N)[C@@H](O)[C@@H]3NC(=N)N)O[C@@H](C)[C@]2(O)CO)O[C@@H](CO)[C@H](O)[C@H]1O [Dihydrostreptomycin]
Colony-Forming Units B. Canis Per Spleen (B. canis [1]): 1.13 ± 0.30 × 10^5
Killing of B. canis in vitro (B. canis [2]): kill B. canis in vitro

[H]/N=C(/N)N[C@H]1[C@H](O)[C@@H](O)[C@H](O[C@@H]2O[C@@H](C)[C@](O)(C=O)[C@H]2O[C@@H]2O[C@@H](CO)[C@H](O)[C@@H](O)[C@@H]2NC)[C@@H](N/C(N)=N\[H])[C@@H]1O [Streptomycin]
Colony-forming units of intracellular B. canis (B. canis [3]): 3.11 + 0.40 × 10^3 CFU
Colony-forming units of intracellular B. abortus (B. abortus [4]): 3.3 ± 0.25 × 10^4 CFU
Surviving B. canis in spleens (B. canis [5]): very little reduction in surviving B. canis in spleens was observed
Surviving B. canis per organ (B. canis [6]): viable B. canis organisms could be isolated in all tissues sampled
Colony-Forming Units B. Canis Per Spleen (B. canis [1]): 1.01 ± 0.17 × 10^5
Killing of B. canis in vitro (B. canis [2]): kill B. canis in vitro
Blood and vaginal culture outcome (B. canis [7]): remained culture positive for blood and vaginal cultures during post-treatment periods
Surviving B. abortus in spleen (B. abortus [8]): viable B. abortus bacteria were be identified
M. Bovis cultures positive (M. bovis; UV-radiated, day 3 post-treatment): 3/5
M. Bovis cultures positive (M. bovis; UV-radiated, day 5 post-treatment): 4/5
Number of mice with corneal opacity score 0 (M. bovis; UV-radiated, post-treatment): 14
Number of mice with corneal opacity score 1 (loss of normal luster) (M. bovis; UV-radiated, post-treatment): 3
Number of mice with corneal opacity score 2 (small foci of opacity) (M. bovis; UV-radiated, post-treatment): 2
Number of mice with corneal opacity score 3 (partial opacity) (M. bovis; UV-radiated, post-treatment): 1
Number of mice with corneal opacity score 4 (total opacity) (M. bovis; UV-radiated, post-treatment): 0
Number of mice with corneal opacity score 0 (M. bovis; UV-radiated, pre-treatment): 0
Number of mice with corneal opacity score 1 (loss of normal luster) (M. bovis; UV-radiated, pre-treatment): 4
Number of mice with corneal opacity score 2 (small foci of opacity) (M. bovis; UV-radiated, pre-treatment): 9
Number of mice with corneal opacity score 3 (partial opacity) (M. bovis; UV-radiated, pre-treatment): 7
Number of mice with corneal opacity score 4 (total opacity) (M. bovis; UV-radiated, pre-treatment): 0
M. Bovis cultures positive (M. bovis; non-radiated, day 3 post-treatment): 2/5
M. Bovis cultures positive (M. bovis; non-radiated, day 5 post-treatment): 2/5
Number of mice with corneal opacity score 0 (M. bovis; non-radiated, post-treatment): 18
Number of mice with corneal opacity score 1 (loss of normal luster) (M. bovis; non-radiated, post-treatment): 2
Number of mice with corneal opacity score 2 (small foci of opacity) (M. bovis; non-radiated, post-treatment): 0
Number of mice with corneal opacity score 3 (partial opacity) (M. bovis; non-radiated, post-treatment): 0
Number of mice with corneal opacity score 4 (total opacity) (M. bovis; non-radiated, post-treatment): 0
Number of mice with corneal opacity score 0 (M. bovis; non-radiated, pre-treatment): 18
Number of mice with corneal opacity score 1 (loss of normal luster) (M. bovis; non-radiated, pre-treatment): 1
Number of mice with corneal opacity score 2 (small foci of opacity) (M. bovis; non-radiated, pre-treatment): 1
Number of mice with corneal opacity score 3 (partial opacity) (M. bovis; non-radiated, pre-treatment): 0
Number of mice with corneal opacity score 4 (total opacity) (M. bovis; non-radiated, pre-treatment): 0
M (2-mercaptoethanol tube agglutination test), reciprocal of serum titer (B. canis antigen): 0 × 10^2
R (rapid slide agglutination test), reciprocal of serum titer (B. canis antigen): 0 × 10^2
Serum antibody against B. canis (B. canis antigen; ip, 10 mg/kg): developed detectable serum titers against B. canis antigens by day 21 post-inoculation

Gentamycin
Killing of B. canis in vitro (B. canis [2]): kill B. canis in vitro
Gentamycin retained in eyelid tissue ([9]; 4 hours, topical): less than 5%
Gentamycin sulfate cleared ([9]; within a 4 hour period): 95%
